In data set [1] the test system is HCV subgenomic replicon RNA of genotype 1b strain N (Huh7/Rep-Feo cells). Briefly: Luciferase assay in HCV subgenomic replicon cell line Huh7/Rep-Feo. It is filed as cell-based, hepatitis C virus. Particulars: Huh7/Rep-Feo, strain N (1b); for EC50: subgenome, 72 h, read-out: EC50, fifty percent effective concentration based on the inhibition of HCV replication. As for the experimental part:
The Huh7/Rep-Feo cell line, which harbors the subgenomic replicon RNA composed of HCV IRES, the gene of the fusion protein consisting of neomycin phosphotransferase and firefly luciferase, EMCV IRES and a nonstructural gene of genotype 1b strain N in order in Huh7 cell line, was previously established. Thus, the luciferase activity corresponds to the level of HCV RNA replication. The cell line was maintained in Dulbecco's modified Eagle medium containing 10% fetal calf serum and 0.5 mg/mL G418 and cultured in absence of G418 when they were treated with compounds. The Lunet/Con1LUN Sb #26 cell line, which harbors the subgenomic replicon RNA of the Con1 strain (genotype 1b), was described previously. The OR6 cell line, which harbors the full genomic replicon RNA of the O strain (genotype 1b), was described previously. The HCV replicon cell line derived from the genotype 2a strain JFH1 was described previously. The viral RNA derived from the plasmid pJFH1 was transcribed and introduced into Huh7OK1 cells according to the method of Wakita et al.. The virus was amplified by the several times passages. The cells were infected with the virus at a multiplicity of infection (moi) of 1 and then treated with each compound at 24 h post-infection. The culture supernatants were harvested 72 h post-treatment to estimate the viral RNA as described below.
(§1) The replicon cells were seeded at 2×10^4 cells per well in a 48-well plate 24 h before treatment. […] The resulting cells were harvested 72 h post-treatment and lysed with cell culture lysis reagent (Promega, Madison, WI). The luciferase activity of each cell lysate was estimated using a luciferase assay system (Promega). The resulting luminescence was detected by a Luminescencer-JNR AB-2100 (ATTO, Tokyo, Japan).
Background: In antiviral work, replicon cells carry a viral genome segment that copies itself.

Data set [2] is described as follows: Cytotoxicity (MTS assay) in Huh7/Rep-Feo replicon cells. It is filed as cell-based. Particulars: human, Huh7/Rep-Feo cells, MTS, read-out: CC50, fifty percent cytotoxicity concentration based on the reduction in cell viability. As for the experimental part:
(§2) The replicon cells were seeded at a density of 1×10^4 cells per well in a 96-well plate and then incubated at 37°C for 24 h. […] Cell viability was measured using a dimethylthiazol carboxymethoxy-phenylsulfophenyl tetrazolium (MTS) assay with a CellTiter 96 aqueous one-solution cell proliferation assay kit (Promega).
Background: Tetrazolium assays rely on reduction of a dye to a coloured formazan, in cell work by metabolically active cells.

A further data set has as its system Huh7/Rep-Feo cells. Described as above. It is filed as cell-based. The following applies: Huh7/Rep-Feo cells, 72 h, MTS; read-out: CC50, fifty percent cytotoxicity concentration based on the reduction in cell viability. As for the experimental part:
as §2

For the next data set, the system named is ISRE-promoter activity. Nature of the data set: ISRE reporter assay in Huh7 OK1 cells. It is filed as cell-based. The following applies: 48 h of treatment, interferon alpha 2b as positive control.
In data set [3] the test system is HCV subgenomic replicon RNA of genotype 1b strain Con1. Briefly: Drug combination analysis (CalcuSyn) in Con1 LUN Sb #26 replicon cells. It is filed as cell-based, hepatitis C virus. Particulars: 72 h; for effect of combination with compound 10 on inhibition of HCV replication (combination index at EC50, EC75, EC90): CI <0.9 synergy, 0.9 to 1.1 additivity, >1.1 antagonism; for isobologram: location of calculated EC90 plots for combination with compound 10: under additive line = synergy, above = antagonism. As for the experimental part: as §1
The effects of drug-drug combinations were evaluated by using the Con1 LUN Sb #26 replicon cells, and were analyzed by using the computer software CalcuSyn (Biosoft, Cambridge, United Kingdom). Dose inhibition curves of two different drugs were plotted with each other. In each drug combination, EC90 values of several combinations of two different drugs were plotted as the fractional concentration (FC) of both drugs on the x and y-axes. Additivity indicates the line linked between 1.0 FC value points of both drugs in the absence of each other. Synergy and antagonism are indicated by values plotted under and above, respectively, an additivity line. The explanatory diagram of isobologram is shown in a right end of lower panels of Figure 5A. Combination indexes (CIs) were calculated at the EC50, EC75, and EC90 by using CalcuSyn. A CI value of less than 0.9 indicates synergy. A CI value ranging from 0.9 to 1.1 indicates additivity. A CI value of more than 1.1 indicates antagonism. The explanatory diagram was shown in a right end of lower panels of Figure 5B.

Molecules are shown by their SMILES. Where two headings read alike, the source gives them in different places.

As to `O=C(O)/C=C/c1ccc(O)c(O)c1` [Compound 2, caffeic acid], in data set [1] (Hepatitis C virus, Huh-7), the EC50 was 36.6 ± 6.7 µM. In addition, the “SI, selectivity index (CC50/EC50)” value in data set [1] is over 8.7. Moreover, in data set [2] (Huh7/Rep-Feo replicon cells), the CC50 at 72 h was over 320 µM.

As to `COc1cc(/C=C/C(=O)O)ccc1O` [Compound 3, ferulic acid], the EC50 in data set [1] is 71.9 ± 5.8 µM. Also, the CC50 in the data set on Huh7/Rep-Feo cells was over 320 µM.

For the compound `O=C(C=Cc1ccccc1)OCCc1ccccc1` [Compound 4, Cinnamic acid phenethyl ester], in data set [1], the EC50 is 86.1 ± 6.3 µM. Moreover, in the data set with Huh7/Rep-Feo cells, the CC50 was over 320 µM.

In the case of `O=C(/C=C/c1ccc(O)c(O)c1)O[C@@H]1C[C@](O)(C(=O)O)C[C@@H](O)[C@H]1O` [Compound 5, chlorogenic acid], the EC50 in data set [1] (Hepatitis C virus, Huh-7) was determined as 103 ± 3.4 µM. The “SI, selectivity index (CC50/EC50)” value in data set [1] is reported as over 3.1. In data set [2] (Huh7/Rep-Feo replicon cells), the CC50 at 72 h was over 320 µM.

For `O=C(/C=C/c1ccc(O)c(O)c1)O[C@H](Cc1ccc(O)c(O)c1)C(=O)O` [Compound 6, Rosmarinic acid], the EC50 in data set [1] (Hepatitis C virus, Huh-7) stood at 110 ± 1.1 µM. In addition, the “SI, selectivity index (CC50/EC50)” value in data set [1] is on record as over 2.9. For the same compound, the “effect on ISRE-promoter activities” value in the data set on ISRE-promoter activity is “no significant effects”. For the same compound, the CC50 at 72 h in data set [2] was over 320 µM.

With `COC(=O)/C=C/c1ccc(O)c(O)c1` [Compound 7, caffeic acid methyl ester], the EC50 in data set [1] came out at 28.6 ± 1.2 µM. For the same compound, the CC50 in the data set with Huh7/Rep-Feo cells turned out to be 122 ± 5 µM.

Regarding `COC(=O)CCc1ccc(O)c(O)c1` [Compound 12, Dihydrocaffeic acid methyl ester], the EC50 in data set [1] was 77 ± 1.6 µM. Besides, the CC50 in the data set with Huh7/Rep-Feo cells was 141 ± 3.4 µM.

With `CCCCCCCCOC(=O)/C=C/c1ccc(O)c(OC)c1` [Compound 13, 3-O-methylcaffeic acid n-octyl ester], the EC50 in data set [1] (Hepatitis C virus, Huh-7) was found to be 10.2 ± 1.1 µM. Further, the “SI, selectivity index (CC50/EC50)” value in data set [1] was determined as 5.9. Moreover, the CC50 at 72 h in data set [2] (Huh7/Rep-Feo replicon cells) came to 60.3 ± 1.6 µM.

As to `CCCCCCCCOC(=O)/C=C/c1ccc(OC)c(O)c1` [Compound 14, 4-O-methylcaffeic acid n-octyl ester], the EC50 in data set [1] (Hepatitis C virus, Huh-7) came out at 19.6 ± 0.8 µM. In addition, in data set [1], the “SI, selectivity index (CC50/EC50)” value is 3. In data set [2] (Huh7/Rep-Feo replicon cells), the CC50 at 72 h worked out at 59.2 ± 1.4 µM.

Consider `CCCCCCCCOC(=O)C=Cc1cc(O)c(O)c(O)c1` [Compound 16, 3,4,5-Trihydroxycinnamic acid n-octyl ester], for which, in data set [1] (Hepatitis C virus, Huh-7), the EC50 was 36.3 ± 2.9 µM. Besides, the “SI, selectivity index (CC50/EC50)” value in data set [1] was 1.6. Also, the CC50 at 72 h in data set [2] (Huh7/Rep-Feo replicon cells) was 59.8 ± 6.9 µM.

`CC(C)(C)C#Cc1cc(N(C(=O)[C@H]2CC[C@H](C)CC2)[C@H]2CC[C@H](O)CC2)c(C(=O)O)s1` [VX-222]: in data set [3], the “effect of combination with compound 10 on inhibition of HCV replication (combination index at EC50, EC75, EC90)” value is “additive to synergistic effect” and the “isobologram: location of calculated EC90 plots for combination with compound 10” value is recorded as “under the additive line”.

With `COC(=O)N[C@H](C(=O)N1CCC[C@H]1c1nc(-c2ccc(-c3ccc(-c4c[nH]c([C@@H]5CCCN5C(=O)[C@@H](NC(=O)OC)C(C)C)n4)cc3)cc2)c[nH]1)C(C)C` [daclatasvir], in data set [3], the “effect of combination with compound 10 on inhibition of HCV replication (combination index at EC50, EC75, EC90)” value is given as “strong synergistic effect” and the “isobologram: location of calculated EC90 plots for combination with compound 10” value is on record as “under the additive line”.

Regarding `CC(C)(C)OC(=O)N[C@H]1CCCCC/C=C\[C@@H]2C[C@@]2(C(=O)NS(=O)(=O)C2CC2)NC(=O)[C@@H]2C[C@@H](OC(=O)N3Cc4cccc(F)c4C3)CN2C1=O` [danoprevir], in data set [3], the “effect of combination with compound 10 on inhibition of HCV replication (combination index at EC50, EC75, EC90)” value is reported as “antagonistic to additive effect” and the “isobologram: location of calculated EC90 plots for combination with compound 10” value is listed as “above the additive line”.

As to `CCC[C@H](NC(=O)[C@@H]1[C@H]2CCC[C@H]2CN1C(=O)[C@@H](NC(=O)[C@@H](NC(=O)c1cnccn1)C1CCCCC1)C(C)(C)C)C(=O)C(=O)NC1CC1` [telaprevir], in data set [3], the “effect of combination with compound 10 on inhibition of HCV replication (combination index at EC50, EC75, EC90)” value is reported as “antagonistic effect” and the “isobologram: location of calculated EC90 plots for combination with compound 10” value was “above the additive line”.
